# Bridge positions count the residues as written; N and C are the ends. Square brackets hold non-standard residues; d marks the D form. Peptide text beside a SMILES is read from it.
# Legend:
# [1] = target: T1, GC-C Receptor (Homo sapiens, UniProt P25092); assay: Cyclic GMP stimulation assay in T84 cells; type: cell-based
# T1 construct: endogenous in cells; host or cells: T84 human colon carcinoma cells
# Protocol: (§1) The potency of test peptides to stimulate cGMP synthesis in T84 cells was assayed by a published procedure (Shailubhai et al. 2000). Briefly, confluent monolayers of T-84 cells in 24-well plates were washed twice with 250 μl of DMEM containing 50 mM HEPES (pH 7.4), pre-incubated at 37° C. for 10 min with 250 μl of DMEM containing 50 mM HEPES (pH 7.4) and 1 mM isobutylmethylxanthine (IBMX), followed by incubation with test peptide for 30 min. The medium was aspirated, and the reaction was terminated by the addition of 3% perchloric acid. Following centrifugation, and neutralization with 0.1 N NaOH, the resulting supernatant was used directly for measurements of intracellular cGMP using an ELISA kit (Caymen Chemical, Ann Arbor, Mich.). Results are expressed as pmol of cGMP/mg of protein in the cell extracts.
# [2] = tested on: NF-κB; assay: Inhibition of NF-κB signaling in LPS-stimulated T84 cells, Western blot; type: cell-based, human
# Protocol: Approximately 1.5×10^6 T84 cells were seeded into 100 mm dishes and cultured essentially as described (Shailubhai et al. 2000). At 85-90% confluence, cells were washed and treated with 10 μg/ml lipopolysaccharides (LPS) from Escherichia coli (Sigma-Aldrich, St. Louis, Mo.) for 4 h. Subsequent to LPS treatment, cells were washed and replenished with fresh media containing 8-Bromo-cyclic GMP (8-Br-cGMP) at 0, 0.1, 1, 10, 100 and 1000 μM (Enzo Life Science, Farmingdale, N.Y.), or SP-333 at 0, 0.01, 0.1, 1 and 10 μM together with 500 μM of phosphodiesterase inhibitor Zaprinast (Sigma-Aldrich, St. Louis, Mo.) for 16 h before harvest. For analyzing phosphorylation status of IKK-α/β, T84 cells were stimulated with LPS (10 μg/ml) for 4 h followed by treatment with 0.1 and 1.0 μM of SP-333 in the presence of 500 μM Zaprinast, for 2 h. The control cells (without LPS treatment) were washed and refilled with fresh media and harvested simultaneously with treated cells. Nuclear and cytosolic extracts were prepared by the previously described method (Aiamkitsumrit et al. 2007). Protein concentration was measured with a Bio-Rad protein assay kit (Bio-Rad, Hercules, Calif.). The extracts were stored at −80° C. until use.
# T84 cells at 85-90% confluence were washed and treated with 10 μg/ml Escherichia coli LPS (Sigma-Aldrich, St. Louis, Mo.) for 4 h.
# Western Blot analysis: This was performed essentially as described^21 employing either 50 μg of cytoplasmic or 25 μg proteins of the nuclear fractions. The blots were probed overnight with primary antibodies of interest (anti-p65 antibody, 1:200 dilution; anti-IκB antibody 1:500 dilution; anti-phosphorylated p65 antibody, 1:250 dilution; anti-phosphorylated IκB antibody 1:250 dilution; all were from Santa Cruz Biotechnology (Santa Cruz, Calif.). Anti-IKK-β and phosphorylated IKK-α/β (Ser 176/180) were purchased from Cell Signaling Technology, Boston, Mass. and used at 1:500 dilution; anti-mouse or anti-rabbit antibodies conjugated to […] were used for chemiluminescence detection as recommended by manufacturer (GE Healthcare, Piscataway, N.J.).
# [3] = tested on: LPS stimulated T84 cells; assay: Cytokines expression analysis (ELISA) in LPS stimulated T84 cells; type: cell-based, human; settings: LPS 10 μg/ml 4 h, then SP-333 16 h
# Protocol: To evaluate the effect of different concentrations of SP-333 on secretion of cytokines (IL-8 and TNF), 12-well plates seeded with 10^5 cells/well were used. At 85-90% confluence, cells were washed with DPBS and treated with or without LPS (10 μg/ml) for 4 h, followed by washing with phosphate buffered saline (PBS). SP-333 at 0, 0.01, 0.1, 1 and 10 μM) together with 500 μM of Zaprinast was added to the treated cells and incubated further for 16 h. The levels of IL-8 and TNF were quantified using human IL-8 and TNF ELISA development kits (Peprotech, Rocky Hill, N.J.) Each ELISA was performed in triplicate with cell-free supernatants from two independent experiments. The protein concentration of each well was assessed by Bio-Rad protein dye detection kit.
# [4] = type: in vitro ADME
# Protocol: as §1
# Plecanatide and SP-333 were incubated in simulated intestinal fluid (SIF) for 6-24 h. Inactivated SIF was used as a control. Following the treatment, samples were analyzed by HPLC by cGMP production in T84 cells. […] The active metabolite, SP-338 was characterized by MS and MS/MS and identified to be formed via removal of carboxyl terminal leucine possibly due to cleavage by carboxypeptidases.
# [5] = tested on: T84 cells; assay: Quantitative RT-PCR for transcripts in T84 cells; type: cell-based, human
# [6] = Non-clinical safety and toxicology studies; settings: rodents and monkeys, oral
# T1 sequence (P25092 24-1073): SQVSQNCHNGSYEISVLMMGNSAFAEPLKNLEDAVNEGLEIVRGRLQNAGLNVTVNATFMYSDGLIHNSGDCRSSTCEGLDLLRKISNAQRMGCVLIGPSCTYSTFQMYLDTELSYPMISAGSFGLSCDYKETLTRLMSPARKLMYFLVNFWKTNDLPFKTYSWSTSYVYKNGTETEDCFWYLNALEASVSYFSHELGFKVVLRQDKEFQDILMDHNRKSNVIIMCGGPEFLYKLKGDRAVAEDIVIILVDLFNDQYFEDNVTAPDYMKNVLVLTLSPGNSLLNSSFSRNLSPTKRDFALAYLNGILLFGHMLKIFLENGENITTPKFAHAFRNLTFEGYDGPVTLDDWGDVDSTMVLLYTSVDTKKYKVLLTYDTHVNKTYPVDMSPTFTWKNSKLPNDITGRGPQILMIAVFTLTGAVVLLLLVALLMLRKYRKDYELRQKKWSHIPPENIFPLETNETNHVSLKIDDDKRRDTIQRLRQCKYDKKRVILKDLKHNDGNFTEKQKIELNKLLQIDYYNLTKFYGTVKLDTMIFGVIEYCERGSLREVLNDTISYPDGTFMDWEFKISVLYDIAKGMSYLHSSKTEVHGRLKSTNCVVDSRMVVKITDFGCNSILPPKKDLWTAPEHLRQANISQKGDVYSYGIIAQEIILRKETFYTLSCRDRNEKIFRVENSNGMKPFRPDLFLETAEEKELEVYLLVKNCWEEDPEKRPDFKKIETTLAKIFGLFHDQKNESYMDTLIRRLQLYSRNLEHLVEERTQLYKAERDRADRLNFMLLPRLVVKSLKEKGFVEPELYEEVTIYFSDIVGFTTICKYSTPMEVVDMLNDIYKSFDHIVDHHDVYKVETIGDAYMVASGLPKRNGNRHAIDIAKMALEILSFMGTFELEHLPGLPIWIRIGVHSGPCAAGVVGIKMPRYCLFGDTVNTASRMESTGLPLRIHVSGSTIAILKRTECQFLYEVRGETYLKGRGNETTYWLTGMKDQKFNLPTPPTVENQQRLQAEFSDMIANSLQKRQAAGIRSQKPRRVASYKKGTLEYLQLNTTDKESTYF
smiles,measurement,setting,value
"CC(C)C[C@@H]1NC(=O)[C@H](CCC(=O)O)NC(=O)[C@@H](NC(=O)[C@H](CCC(=O)O)NC(=O)[C@H](CC(=O)O)NC(=O)[C@H](N)CC(N)=O)CSSC[C@@H]2NC(=O)[C@H](C)NC(=O)[C@H](C(C)C)NC(=O)[C@H](CC(N)=O)NC(=O)[C@H](C(C)C)NC(=O)[C@H](CSSC[C@@H](C(=O)N[C@H](CC(C)C)C(=O)O)NC(=O)CNC(=O)[C@H]([C@@H](C)O)NC2=O)NC1=O [SP-333, dAsn^1-Asp^2-Glu^3-Cys^4-Glu^5-Leu^6-Cys^7-Val^8-Asn^9-Val^10-Ala^11-Cys^12-Thr^13-Gly^14-Cys^15-dLeu^16] (H-[dN]DECELCVNVACTGC[dL]-OH; disulfide 4-12, 7-15; N-terminus and C-terminus assumed)",potency to stimulate cGMP in T84 cells,[1],dose dependent increase in cGMP
same,EC50,"[1]; 30 min with peptide, 1 mM IBMX",283 nM
same,levels of phospho-p65,"[2]; LPS 10 μg/ml 4 h, then SP-333 (1.0 and 10 μM) 16 h, zaprinast 500 μM",reduced levels of phospho-p65 in a dose-dependent manner
same,levels of IκBα,[2]; LPS-activated T84 cells,increase
same,levels of phospho-IκBα,[2]; LPS-activated T84 cells,reduced
same,level of total IKKβ,"[2]; LPS-activated T84 cells, FIG. 3C",remained unchanged
same,LPS-mediated increase in phosphorylation of IKKβ,"[2]; SP-333 1 μM, 2 h after LPS 4 h",completely reversed
same,LPS induced activation of NF-κB,[2]; T84 cells,inhibited
same,LPS stimulated production of IL-8,[3],concentration dependent reversal
same,LPS stimulated production of TNF,[3],concentration dependent reversal
same,biological activity lost,[4],~20%
same,biological activity retained,[4],retains most of its biological activity
same,transcripts of cell division cycle 25a (putative c-Myc target gene),[5],reduced
same,transcripts of cyclin D1 (putative c-Myc target gene),[5],reduced
same,transcripts of p53 (putative c-Myc target gene),[5],reduced
same,Expression of Protein Kinase G I and II Transcripts,[5]; FIG. 15,enhanced
same,decrease in Cyclin D1 expression,[5]; FIG. 17,58%
same,decrease in Survivin expression,[5]; FIG. 17,50%
same,decrease in c-Myc expression,[5]; FIG. 17,92%
same,expression of β-Catenin,[5]; FIG. 17,no effect
same,decrease in c-Src expression,"[5]; compared to untreated cells, FIG. 16",52%
same,non-clinical safety and toxicology,[6],orally-safe drug candidate

# Reference: US20160235807A1, “AGONISTS OF GUANYLATE CYCLASE USEFUL FOR DOWNREGULATION OF PRO-INFLAMMATORY CYTOKINES” (SYNERGY PHARMACEUTICALS, INC., priority 2013, published 2016)
